Where “and” joins values, the source holds several entries; their conditions need not be identical. Equal values may be shown once. Records with an inconclusive call do not appear. Calls of active or inactive are those of the source.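 Rule for the calls: active = loss of yeast growth signal with half-maximal concentration no more than ten times the top tested dose, in every run; inconclusive = runs disagree, or a weak flat curve or poor fit; inactive = inactive in every run.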

System in one test: not listed separately
In words: reduced ATP viability signal of PfHsp90 yeast – S. cerevisiae, BacTiter-Glo luminescence, dry powder samples, antimalarial PfHsp90 inhibitor project, dose response (AID 588396). As to conditions: S. cerevisiae expressing PfHsp90, BacTiter-Glo ATP luminescence, 48 h; at 26 µM (top of the series).
On to `COc1ccc2c(c1)[nH]c1c(C)nccc12`, for which the activity change, negative = inhibition was 217% (inactive).

For `Cc1ccc(N2C(=O)C3C4C=CC(CNC(=S)Nc5cccc(Cl)c5)(O4)C3C2=O)cc1` (stereo not given), the activity change, negative = inhibition was -41.4% (inactive).

`Nc1c2ccccc2nc2ccccc12` (tested in a mixture with another compound): the activity change, negative = inhibition is 51.8% (inactive) and 38.4% (inactive).

Take `O=C1C(Cl)=C(NCCc2ccccc2)C(=O)c2ccccc21`: the activity change, negative = inhibition is 1.42% (inactive).

A further test relates to S. cerevisiae expressing PfHsp90, BacTiter-Glo ATP luminescence, 48 h. Described as above.
Settings: not given
On to `O=S(=O)(/C=C/c1ccccc1)NC1CCCCCCC1`, for which the AC50 (commonly the concentration at which the activity in the assay is half-maximal) is 6.52 µM.

On to `Cc1ccc(N2C(=O)C3C4C=CC(CNC(=S)Nc5ccc(F)cc5)(O4)C3C2=O)cc1` (stereo not given), for which the AC50 is 26.3 µM.

For `COc1ccc2c(c1)C=C(C(=O)NCc1ccc(Cl)cc1)CO2`, the AC50 was 8.85 µM.

Consider `O=C1C(Cl)=C(Oc2ccccc2)C(=O)c2ccccc21`, for which the concentration at half-maximal activity (AC50) is 0.974 µM.

With `CCN(CC)c1ccc(/C=C2/SC(=O)N(C(C)C)C2=O)o1`, the concentration at half-maximal activity (AC50) was 12.2 µM.

Take `O=S(=O)(NC1CC2CCC1C2)c1ccc(Cl)cc1` (stereo not given): the AC50 was 3.25 µM.

With `O=S(=O)(NC1CCCCCC1)c1ccc(Br)s1`, the half-maximal activity concentration (AC50) is 1.34 µM.

With `Cc1ccc(O)c(NC(=S)NC(=O)c2ccc(-c3ccc(Cl)cc3)o2)c1`, the AC50 was 6.37 µM.

`O=C(O)/C=C/c1cn(-c2ccccc2)nc1-c1cc2ccccc2o1`: the concentration at half-maximal activity (AC50) was 9.7 µM.

Turning to `O=C(CSCC(=O)N1CCCCC1)Nc1nc(-c2ccc(Cl)s2)cs1`, the AC50 is 14.5 µM.

As to `CCOc1cc(S(=O)(=O)NC2CCCCCC2)ccc1F`, the AC50 was 7.34 µM.

For the origin of these results see PubChem BioAssay AID588396 (Broad Institute, 2011).
